Where no end group is shown, it is not given here.
Experiments:
[1] = molecular target: T1, human PTHR1 (R^0 conformation) (Homo sapiens, UniProt Q03431); assay: Competition binding to the R^0 conformation of PTHR1
T1 construct: expressed in transfected cells; host or cells: COS-7 cells (transient transfection; membranes)
T1 sequence (Q03431 27-593): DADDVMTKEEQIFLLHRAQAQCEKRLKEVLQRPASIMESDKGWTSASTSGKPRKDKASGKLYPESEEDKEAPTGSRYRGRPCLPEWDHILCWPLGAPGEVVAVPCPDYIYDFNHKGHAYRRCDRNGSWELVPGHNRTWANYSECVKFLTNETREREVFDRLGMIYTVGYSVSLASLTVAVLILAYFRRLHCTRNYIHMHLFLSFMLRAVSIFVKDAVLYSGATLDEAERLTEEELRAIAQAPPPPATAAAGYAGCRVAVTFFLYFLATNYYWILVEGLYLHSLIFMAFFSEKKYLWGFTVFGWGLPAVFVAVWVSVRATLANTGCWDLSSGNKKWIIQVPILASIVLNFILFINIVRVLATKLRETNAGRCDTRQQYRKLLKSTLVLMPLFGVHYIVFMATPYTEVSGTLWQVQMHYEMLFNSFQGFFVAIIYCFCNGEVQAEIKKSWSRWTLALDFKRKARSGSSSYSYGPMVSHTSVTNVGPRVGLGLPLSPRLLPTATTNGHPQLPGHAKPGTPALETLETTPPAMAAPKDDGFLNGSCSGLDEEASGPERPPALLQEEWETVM

human PTHR1 = molecular target: T2, human PTHR1 (Homo sapiens, UniProt Q03431); assay: GloSensor cAMP signaling assay in GP‐2.3 cells; type: cell-based
T2 construct: expressed in transfected cells
T2 sequence (Q03431 27-593): T1 sequence (Q03431 27-593)
Method: GP‐2.3 cells, an HEK‐293 cell‐ (ATCC CRL‐1573) derived cell line that stably expresses the luciferase‐based pGloSensor‐22F (GloSensor) cAMP reporter plasmid (Promega Corp., […], USA) along with the human PTHR1, were cultured in DMEM (Thermo Fisher Scientific, Waltham, MA, USA) supplemented with FBS (10%). Cells were seeded into white 96‐well plates for GloSensor cAMP assays, and used for assay 2 to 3 days after the monolayer became confluent.16 UGS‐56 cells were derived from the UMR106 rat osteoblastic cell line by stably transfecting the cells to express the GloSensor‐cAMP reporter. B64 cells are a derivative of the porcine kidney cell line, LLC‐PK1 that stably expresses the human PTHR1. COS‐7 cells (ATCC CRL‐1661) were seeded into 10‐cm dishes and transiently transfected to express the human PTHR1 with or without a high‐affinity, negative‐dominant Gαs subunit; 2 days after transfection, the cells were harvested for membrane preparations.13 All transfections were performed using the Fugene HD reagent (Promega Corp.).
Changes in cAMP levels were assessed in intact GP‐2.3 or UGS‐56 cells via the (GloSensor) cAMP reporter. The intact cells in white 96‐well plates were preloaded with luciferin in CO2‐independent culture media (Thermo Fisher) for 20 min at room temperature, then treated with a test ligand diluted in the same media and placed into a Envision plate reader (PerkinElmer, Waltham, MA, USA) for an additional 30 min, during which time cAMP‐dependent luminescence was measured at 2‐min intervals (ligand‐on phase). […] For washout responses, the cells were treated as above, and after the ligand‐on phase, the plate was removed from the plate reader, the cells were rinsed with media, then fresh media containing only luciferin was added and luminescence was measured for an additional 90 min (washout phase). EC50 values were determined using the 4‐parameter sigmoidal dose–response equation in Prism 8.0 (GraphPad Software, Inc., La Jolla, CA, USA).
The cells were then removed from the plate reader, rinsed twice with media to remove unbound ligand, and then fresh media containing luciferin but lacking ligand was added and luminescence was assessed for additional 90 min (Ligand wash‐out phase). Data are means (± SEM) of four experiments, each performed in triplicate. Figure S2. […] Panels A‐C represent three separate experiments. […] Figure S3. […] Serum and urine samples obtained from the TPTX and sham control rats of the two‐week daily‐administration experiment shown in Figure 4 were analyzed by ELISA for the indicated markers. A) serum 1,25(OH)2Vitamin‐D3. B) urinary deoxypyridinoline (DpD)/Cre. C) serum FGF23. […] Serum and urine samples obtained from the TPTX and sham control rats of the two‐week daily‐administration experiment shown in Figure 4 were analyzed for total inorganic phosphorus (Pi). […] Figure S5. […] B) The same peptides were assessed at a concentration of 3 nM for the capacity to stimulate cAMP formation in HKRK‐B64 cells (LLC‐PK1 cells stably expressing the hPTHR1, cAMP measured by RIA). […] Data in A and B are means (±SEM) of three experiments, each performed in triplicate or quadruplicate. […] D) The same analogs as in C were assessed at a 3.0 nM concentration for the capacity to stimulate cAMP formation in HKRK‐B64 cells. Data are means (±SEM) of three experiments, each performed in duplicate. […] Data are means (±SEM) of duplicate determinations of a single experiment representative of three others. Click here for additional data file.

Work on “AVAEIQLMHQRAKWIQDLRRRFFLHHLIAEIHTAEI [M‐PTH(1‐14)/PTHrP(15‐36), [Ala^1,3,12,Gln^10,Arg^11,Trp^14]‐PTH(1‐14)/PTHrP(15–36)]” yielded an IC50 [1] of 2.69 ± 0.99 nM and an Emax (human PTHR1) of 105 ± 4%.

Reference: publication PMC7340446, “Optimization of PTH/PTHrP Hybrid Peptides to Derive a Long‐Acting PTH Analog (LA‐PTH)” (JBMR Plus, 2020)
